From ChEMBL document CHEMBL1201862, “PubChem BioAssay data set” (2004)
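Cells were grown in 96-well plates and exposed to each compound for 48 hours at five concentrations; endpoints were interpolated linearly between bracketing concentrations, or set to the highest concentration if not reached. GI50 = concentration required for 50% inhibition of growth.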 Active and inactive are the calls of the source. Rule as the data show it: active = GI50 up to about 1.1 µM and inactive = higher.

Legend:
Test in all cases: DTP human tumour cell line panel, 48 h
[1] = tested on: NCI-H460
[2] = tested on: HCT-116
[3] = tested on: SW-620
[4] = tested on: BT-549
[5] = tested on: SF-268
[6] = tested on: OVCAR-3
[7] = tested on: HL-60
[8] = tested on: NCI-H522
[9] = tested on: SR
[10] = tested on: UO-31
[11] = tested on: UACC-62
[12] = tested on: NCI-H226
[13] = tested on: M19-MEL
[14] = tested on: HOP-62
[15] = tested on: COLO 205
[16] = tested on: Malme-3M
[17] = tested on: A549
[18] = tested on: KM12
[19] = tested on: EKVX
[20] = tested on: M14
[21] = tested on: IGROV-1
[22] = tested on: SNB-75
[23] = tested on: DMS-273
[24] = tested on: A498
[25] = tested on: SK-MEL-2
[26] = tested on: SF-539
[27] = tested on: NCI-H23
[28] = tested on: DLD-1
[29] = tested on: HT-29
[30] = tested on: HOP-18
[31] = tested on: MDA-N
[32] = tested on: T47D
[33] = tested on: ACHN
[34] = tested on: RXF 393
[35] = tested on: MOLT-4
[36] = tested on: Hs-578T
[37] = tested on: 786-0
[38] = tested on: LOX IMVI
[39] = tested on: SK-MEL-28
[40] = tested on: SK-MEL-5
[41] = tested on: K562
[42] = tested on: UACC-257
[43] = tested on: RPMI-8226
[44] = tested on: SF-295
[45] = tested on: DMS-114
[46] = tested on: DU-145
[47] = tested on: MDA-MB-231
[48] = tested on: SNB-19
[49] = tested on: RXF 631
[50] = tested on: MDA-MB-435
[51] = tested on: OVCAR-5
[52] = tested on: HCC 2998
[53] = tested on: CCRF-CEM
[54] = tested on: OVCAR-8
[55] = tested on: MCF7
[56] = tested on: LXFL 529
[57] = tested on: CAKI-1
[58] = tested on: KM-20L2
[59] = tested on: SNB-78
[60] = tested on: PC-3
[61] = tested on: SK-OV-3
[62] = tested on: OVCAR-4
[63] = tested on: HCT-15
[64] = tested on: XF498
[65] = tested on: HOP-92
[66] = tested on: SN12C
[67] = tested on: TK-10
[68] = tested on: U-251
[69] = tested on: NCI/ADR-RES

## COC1CC(CC2CCC(C)C(C(C)C(=O)O)O2)OC2(OC(C)(C3CCC(C)(C4OC(C5OC(O)(CO)C(C)CC5C)CC4C)O3)CC2C)C1C (configuration not stated)
[1]
  GI50: 0.402 µM (active)
[2]
  GI50: 0.759 µM (active)
[3]
  GI50: 1.52 µM (inactive)
[4]
  GI50: 0.3 µM (active)
[5]
  GI50: 1.88 µM (inactive)
[6]
  GI50: 0.0406 µM (active)
[7]
  GI50: 0.0363 µM (active)
[8]
  GI50: 0.0217 µM (active)
[9]
  GI50: 0.0634 µM (active)
[10]
  GI50: 1.79 µM (inactive)
[11]
  GI50: 1.61 µM (inactive)
[12]
  GI50: 1.21 µM (inactive)
[13]
  GI50: 0.239 µM (active)
[14]
  GI50: 0.522 µM (active)
[15]
  GI50: 0.116 µM (active)
[16]
  GI50: 0.0923 µM (active)
[17]
  GI50: 0.111 µM (active)
[18]
  GI50: 0.773 µM (active)
[19]
  GI50: 2.15 µM (inactive)
[20]
  GI50: 1.8 µM (inactive)
[21]
  GI50: 1.56 µM (inactive)
[22]
  GI50: 0.36 µM (active)
[23]
  GI50: 0.0719 µM (active)
[24]
  GI50: 0.22 µM (active)
[25]
  GI50: 0.646 µM (active)
[26]
  GI50: 0.19 µM (active)
[27]
  GI50: 0.295 µM (active)
[28]
  GI50: 0.51 µM (active)
[29]
  GI50: 0.183 µM (active)
[30]
  GI50: 0.284 µM (active)
[31]
  GI50: 0.757 µM (active)
[32]
  GI50: 284 nM (active)
[33]
  GI50: 0.964 µM (active)
[34]
  GI50: < 0.0109 µM (active)
[35]
  GI50: 0.347 µM (active)
[36]
  GI50: 0.91 µM (active)
[37]
  GI50: 1.08 µM (active)
[38]
  GI50: 1.28 µM (inactive)
[39]
  GI50: 1.43 µM (inactive)
[40]
  GI50: 0.156 µM (active)
[41]
  GI50: 0.0502 µM (active)
[42]
  GI50: 0.0578 µM (active)
[43]
  GI50: 0.167 µM (active)
[44]
  GI50: 1.15 µM (inactive)
[45]
  GI50: < 0.0151 µM (active)
[46]
  GI50: 3.85 µM (inactive)
[47]
  GI50: 1.53 µM (inactive)
[48]
  GI50: 0.359 µM (active)
[49]
  GI50: 0.0738 µM (active)
[50]
  GI50: 1.75 µM (inactive)
[51]
  GI50: 8.11 µM (inactive)
[52]
  GI50: 0.186 µM (active)
[53]
  GI50: 0.0228 µM (active)
[54]
  GI50: 1.38 µM (inactive)
[55]
  GI50: 0.15 µM (active)
[56]
  GI50: 0.0535 µM (active)
[57]
  GI50: 0.906 µM (active)
[58]
  GI50: 0.124 µM (active)
[59]
  GI50: 1.51 µM (inactive)
[60]
  GI50: 0.552 µM (active)
[61]
  GI50: 7.4 µM (inactive)
[62]
  GI50: 6.56 µM (inactive)
[63]
  GI50: 1.85 µM
[64]
  GI50: 0.0423 µM (active)
[65]
  GI50: 1.07 µM (active)
[66]
  GI50: 0.257 µM (active)
[67]
  GI50: 5.36 µM (inactive)
[68]
  GI50: 0.0836 µM (active)

## COC(=O)c1sc(C(=O)OC)c2c1CSC2
[1]
  GI50: > 100 µM (inactive)
[2]
  GI50: 97.9 µM (inactive)
[3]
  GI50: > 100 µM (inactive)
[4]
  GI50: > 100 µM (inactive)
[5]
  GI50: 54.1 µM (inactive)
[6]
  GI50: > 100 µM (inactive)
[7]
  GI50: > 100 µM (inactive)
[8]
  GI50: 76.2 µM (inactive)
[9]
  GI50: > 100 µM (inactive)
[10]
  GI50: > 100 µM (inactive)
[11]
  GI50: > 78.7 µM (inactive)
[12]
  GI50: > 70.6 µM (inactive)
[13]
  GI50: > 100 µM (inactive)
[14]
  GI50: 47.6 µM (inactive)
[15]
  GI50: > 100 µM (inactive)
[16]
  GI50: > 100 µM (inactive)
[17]
  GI50: > 100 µM (inactive)
[18]
  GI50: > 100 µM (inactive)
[19]
  GI50: > 100 µM (inactive)
[20]
  GI50: > 100 µM (inactive)
[21]
  GI50: > 100 µM (inactive)
[22]
  GI50: 22.5 µM (inactive)
[23]
  GI50: > 100 µM (inactive)
[24]
  GI50: > 91 µM (inactive)
[25]
  GI50: 55.8 µM (inactive)
[26]
  GI50: 53.3 µM (inactive)
[27]
  GI50: > 72.1 µM (inactive)
[28]
  GI50: > 100 µM (inactive)
[29]
  GI50: > 100 µM (inactive)
[30]
  GI50: > 100 µM (inactive)
[31]
  GI50: > 100 µM (inactive)
[33]
  GI50: > 100 µM (inactive)
[34]
  GI50: 47.5 µM (inactive)
[35]
  GI50: > 100 µM (inactive)
[36]
  GI50: 97.9 µM (inactive)
[37]
  GI50: 53.6 µM (inactive)
[38]
  GI50: > 94.6 µM (inactive)
[39]
  GI50: > 100 µM (inactive)
[40]
  GI50: > 100 µM (inactive)
[41]
  GI50: > 100 µM (inactive)
[42]
  GI50: > 100 µM (inactive)
[43]
  GI50: > 100 µM (inactive)
[44]
  GI50: 51.3 µM (inactive)
[45]
  GI50: > 85.5 µM (inactive)
[46]
  GI50: > 100 µM (inactive)
[47]
  GI50: > 100 µM (inactive)
[48]
  GI50: 51.8 µM (inactive)
[49]
  GI50: > 100 µM (inactive)
[50]
  GI50: > 100 µM (inactive)
[51]
  GI50: > 100 µM (inactive)
[52]
  GI50: > 100 µM (inactive)
[53]
  GI50: > 100 µM (inactive)
[54]
  GI50: 79.6 µM (inactive)
[55]
  GI50: > 100 µM (inactive)
[56]
  GI50: > 100 µM (inactive)
[57]
  GI50: > 93.5 µM (inactive)
[58]
  GI50: > 100 µM (inactive)
[59]
  GI50: 49.3 µM (inactive)
[60]
  GI50: > 100 µM (inactive)
[61]
  GI50: > 100 µM (inactive)
[62]
  GI50: > 100 µM (inactive)
[63]
  GI50: > 91.2 µM
[64]
  GI50: 34.7 µM (inactive)
[65]
  GI50: 32 µM (inactive)
[69]
  GI50: > 100 µM (inactive)
[66]
  GI50: > 100 µM (inactive)
[67]
  GI50: > 100 µM (inactive)
[68]
  GI50: 40.3 µM (inactive)

## N#CC1(Cc2ccccc2)CCCCN1C(=O)c1ccccc1 (configuration not stated)
[1]
  GI50: > 100 µM (inactive)
[2]
  GI50: > 100 µM (inactive)
[3]
  GI50: > 100 µM (inactive)
[5]
  GI50: > 100 µM (inactive)
[6]
  GI50: > 100 µM (inactive)
[7]
  GI50: 45.2 µM (inactive)
[9]
  GI50: 44.7 µM (inactive)
[10]
  GI50: 92.9 µM (inactive)
[11]
  GI50: > 100 µM (inactive)
[13]
  GI50: > 100 µM (inactive)
[14]
  GI50: > 100 µM (inactive)
[15]
  GI50: > 100 µM (inactive)
[16]
  GI50: > 100 µM (inactive)
[17]
  GI50: > 100 µM (inactive)
[18]
  GI50: > 100 µM (inactive)
[19]
  GI50: > 100 µM (inactive)
[20]
  GI50: > 100 µM (inactive)
[21]
  GI50: > 100 µM (inactive)
[22]
  GI50: > 100 µM (inactive)
[23]
  GI50: > 100 µM (inactive)
[24]
  GI50: > 100 µM (inactive)
[25]
  GI50: 1.42 µM (inactive)
[26]
  GI50: > 100 µM (inactive)
[27]
  GI50: > 100 µM (inactive)
[28]
  GI50: > 100 µM (inactive)
[29]
  GI50: > 100 µM (inactive)
[30]
  GI50: > 100 µM (inactive)
[33]
  GI50: > 100 µM (inactive)
[34]
  GI50: > 100 µM (inactive)
[35]
  GI50: 74.6 µM (inactive)
[37]
  GI50: > 100 µM (inactive)
[38]
  GI50: 84.7 µM (inactive)
[39]
  GI50: > 100 µM (inactive)
[40]
  GI50: > 100 µM (inactive)
[41]
  GI50: > 100 µM (inactive)
[42]
  GI50: > 100 µM (inactive)
[43]
  GI50: > 100 µM (inactive)
[44]
  GI50: > 100 µM (inactive)
[45]
  GI50: > 100 µM (inactive)
[48]
  GI50: > 100 µM (inactive)
[49]
  GI50: > 100 µM (inactive)
[51]
  GI50: > 100 µM (inactive)
[52]
  GI50: > 100 µM (inactive)
[53]
  GI50: > 100 µM (inactive)
[54]
  GI50: > 100 µM (inactive)
[56]
  GI50: > 100 µM (inactive)
[58]
  GI50: > 100 µM (inactive)
[59]
  GI50: > 100 µM (inactive)
[61]
  GI50: > 100 µM (inactive)
[62]
  GI50: > 100 µM (inactive)
[63]
  GI50: > 100 µM
[64]
  GI50: > 100 µM (inactive)
[65]
  GI50: > 100 µM (inactive)
[66]
  GI50: > 100 µM (inactive)
[67]
  GI50: > 100 µM (inactive)
[68]
  GI50: > 100 µM (inactive)
